Results taken from paper PMC5218480 (PLoS ONE, 2017).

Test system: MV-4-11 cells
Experiment: Gene expression microarray analysis (Affymetrix PrimeView) and GSEA
Format: cell-based, human
Design: RFU PODN (11730768_x_at) / Fold change /veh PODN (11730768_x_at) / RFU LINC00158 (11744669_a_at) / Fold change /veh LINC00158 (11744669_a_at) / RFU DUSP10 (11751237_a_at) / Fold change /veh DUSP10 (11751237_a_at) / RFU ID3 (11757404_x_at) / Fold change /veh ID3 (11757404_x_at) / RFU PLEKHG5 (11737974_s_at) / Fold change /veh PLEKHG5 (11737974_s_at) / RFU LRRC4B (11730491_at) / Fold change /veh LRRC4B (11730491_at) / RFU GIMAP4 (11747438_a_at) / Fold change /veh GIMAP4 (11747438_a_at) / RFU KRT8 (11758183_x_at) / Fold change /veh KRT8 (11758183_x_at) / RFU CNN1 (11734310_a_at) / Fold change /veh CNN1 (11734310_a_at) / RFU VPS37D (11726825_at) / Fold change /veh VPS37D (11726825_at) / RFU C10orf10 (11716522_x_at) / Fold change /veh C10orf10 (11716522_x_at) / RFU KIR2DL2 /// KIR2DL4 /// KIR2DL5A /// KIR2DL5B /// KIR2DS1 /// KIR2DS2 /// KIR2DS3 /// KIR2DS4 /// KIR3DL3 /// KIR3DL3 /// KIR3DS1 (11738374_at) / Fold change /veh KIR2DL2 /// KIR2DL4 /// KIR2DL5A /// KIR2DL5B /// KIR2DS1 /// KIR2DS2 /// KIR2DS3 /// KIR2DS4 /// KIR3DL3 /// KIR3DL3 /// KIR3DS1 (11738374_at) / RFU C1QL1 (11718748_at) / Fold change /veh C1QL1 (11718748_at) / RFU TMPRSS4 (11747572_a_at) / Fold change /veh TMPRSS4 (11747572_a_at) / RFU HAMP (11756126_x_at) / Fold change /veh HAMP (11756126_x_at) / RFU RNFT2 (11725882_a_at) / Fold change /veh RNFT2 (11725882_a_at) / RFU NR4A2 (11747474_a_at) / Fold change /veh NR4A2 (11747474_a_at) / RFU ABCC12 (11746883_a_at) / Fold change /veh ABCC12 (11746883_a_at) / RFU TMEM136 (11760407_x_at) / Fold change /veh TMEM136 (11760407_x_at) / RFU CLDN22 /// WWC2 (11732394_at) / Fold change /veh CLDN22 /// WWC2 (11732394_at) / RFU HLA-DPB1 (11760878_x_at) / Fold change /veh HLA-DPB1 (11760878_x_at) / RFU SPINT1 (11716480_a_at) / Fold change /veh SPINT1 (11716480_a_at) / RFU GAP43 (11754022_s_at) / Fold change /veh GAP43 (11754022_s_at) / RFU A4GNT (11735810_at) / Fold change /veh A4GNT (11735810_at) / RFU PRB3 (11715151_x_at) / Fold change /veh PRB3 (11715151_x_at) / RFU TUBB4B (11761932_at) / Fold change /veh TUBB4B (11761932_at) / RFU CAPN14 (11732068_a_at) / Fold change /veh CAPN14 (11732068_a_at) / RFU TMCC2 (11721928_a_at) / Fold change /veh TMCC2 (11721928_a_at) / RFU IRGQ (11745062_a_at) / Fold change /veh IRGQ (11745062_a_at) / RFU FAM174B (11720279_a_at) / Fold change /veh FAM174B (11720279_a_at) / RFU TMPRSS4 (11748680_a_at) / Fold change /veh TMPRSS4 (11748680_a_at) / RFU FAM212B (11763350_a_at) / Fold change /veh FAM212B (11763350_a_at) / RFU PLEKHG5 (11743358_a_at) / Fold change /veh PLEKHG5 (11743358_a_at) / RFU ZSCAN30 (11745921_a_at) / Fold change /veh ZSCAN30 (11745921_a_at) / RFU CMKLR1 (11741424_a_at) / Fold change /veh CMKLR1 (11741424_a_at) / RFU LOC101060620 /// MAPK8IP1 (11723275_at) / Fold change /veh LOC101060620 /// MAPK8IP1 (11723275_at) / RFU SPTSSB (11747773_x_at) / Fold change /veh SPTSSB (11747773_x_at) / RFU PRSS12 (11739890_at) / Fold change /veh PRSS12 (11739890_at) / RFU BIN1 (11741810_x_at) / Fold change /veh BIN1 (11741810_x_at) / RFU WNT11 (11732464_a_at) / Fold change /veh WNT11 (11732464_a_at) / RFU C10orf10 (11716521_a_at) / Fold change /veh C10orf10 (11716521_a_at) / RFU C5orf56 (11738089_at) / Fold change /veh C5orf56 (11738089_at) / RFU CYB561 (11721691_x_at) / Fold change /veh CYB561 (11721691_x_at) / RFU ANKRD19P (11752326_a_at) / Fold change /veh ANKRD19P (11752326_a_at) / RFU OR2T12 /// OR2T33 /// OR2T8 (11738714_s_at) / Fold change /veh OR2T12 /// OR2T33 /// OR2T8 (11738714_s_at) / RFU VCAN (11748164_a_at) / Fold change /veh VCAN (11748164_a_at) / RFU JSRP1 (11732532_at) / Fold change /veh JSRP1 (11732532_at) / RFU KRTAP10-11 (11738290_x_at) / Fold change /veh KRTAP10-11 (11738290_x_at) / RFU MYO3A (11730013_a_at) / Fold change /veh MYO3A (11730013_a_at) / RFU EBF3 (11725865_a_at) / Fold change /veh EBF3 (11725865_a_at) / RFU CAMK2N1 (11719241_x_at) / Fold change /veh CAMK2N1 (11719241_x_at) / RFU C5orf56 (11738088_a_at) / Fold change /veh C5orf56 (11738088_a_at) / RFU OLFML3 (11715873_a_at) / Fold change /veh OLFML3 (11715873_a_at) / RFU LOC100653217 /// NTM (11731650_a_at) / Fold change /veh LOC100653217 /// NTM (11731650_a_at) / RFU MAPK11 (11762145_a_at) / Fold change /veh MAPK11 (11762145_a_at) / RFU FIZ1 (11724087_x_at) / Fold change /veh FIZ1 (11724087_x_at) / RFU OASL (11726364_x_at) / Fold change /veh OASL (11726364_x_at) / RFU SOX15 (11748057_x_at) / Fold change /veh SOX15 (11748057_x_at) / RFU CD79A (11719716_a_at) / Fold change /veh CD79A (11719716_a_at) / RFU HIST1H1D (11736915_at) / Fold change /veh HIST1H1D (11736915_at) / RFU CASKIN2 (11723855_a_at) / Fold change /veh CASKIN2 (11723855_a_at) / RFU LOC730098 (11760151_x_at) / Fold change /veh LOC730098 (11760151_x_at) / RFU OR4N2 (11742367_at) / Fold change /veh OR4N2 (11742367_at) / RFU PRRT2 (11749266_a_at) / Fold change /veh PRRT2 (11749266_a_at) / RFU SNX32 (11753110_a_at) / Fold change /veh SNX32 (11753110_a_at) / RFU CDHR5 (11726645_a_at) / Fold change /veh CDHR5 (11726645_a_at) / RFU RCAN1 (11760418_a_at) / Fold change /veh RCAN1 (11760418_a_at) / RFU FAM167A (11723789_a_at) / Fold change /veh FAM167A (11723789_a_at) / RFU FAM26E (11764081_at) / Fold change /veh FAM26E (11764081_at) / RFU ISYNA1 (11749810_s_at) / Fold change /veh ISYNA1 (11749810_s_at) / RFU ACY1 (11761880_at) / Fold change /veh ACY1 (11761880_at) / RFU 11764098_at / Fold change /veh 11764098_at / RFU SAMD14 (11745864_x_at) / Fold change /veh SAMD14 (11745864_x_at) / RFU NPB (11741838_a_at) / Fold change /veh NPB (11741838_a_at) / RFU TMPRSS6 (11731388_a_at) / Fold change /veh TMPRSS6 (11731388_a_at) / RFU KRTAP10-2 (11738614_at) / Fold change /veh KRTAP10-2 (11738614_at) / RFU ARHGAP8 /// PRR5-ARHGAP8 (11727945_x_at) / Fold change /veh ARHGAP8 /// PRR5-ARHGAP8 (11727945_x_at) / RFU KRTAP5-7 /// NADSYN1 (11734609_at) / Fold change /veh KRTAP5-7 /// NADSYN1 (11734609_at) / RFU RASL12 (11751679_a_at) / Fold change /veh RASL12 (11751679_a_at) / RFU CDKN2B (11736163_a_at) / Fold change /veh CDKN2B (11736163_a_at) / RFU PRF1 (11729649_at) / Fold change /veh PRF1 (11729649_at) / RFU, ZNF638 /// ZNF638-IT1 / Fold change vs veh, ZNF638 /// ZNF638-IT1 / RFU, PANK3 / Fold change vs veh, PANK3 / RFU, SH3YL1 / Fold change vs veh, SH3YL1 / RFU, ZEB2 / Fold change vs veh, ZEB2 / RFU, NRIP1 / Fold change vs veh, NRIP1 / RFU, PTTG1IP / Fold change vs veh, PTTG1IP / RFU, CAPN2 / Fold change vs veh, CAPN2 / RFU, MED14 / Fold change vs veh, MED14 / RFU, SNORA58 / Fold change vs veh, SNORA58 / RFU, C1orf63 / Fold change vs veh, C1orf63 / RFU, LRRFIP1 / Fold change vs veh, LRRFIP1 / RFU, NDUFAF7 / Fold change vs veh, NDUFAF7 / RFU, SLC12A2 / Fold change vs veh, SLC12A2 / RFU, IBTK / Fold change vs veh, IBTK / RFU, ESF1 / Fold change vs veh, ESF1 / Fold change vs veh, TMEM50B / RFU, TAOK1 / Fold change vs veh, TAOK1 / RFU, ACBD3 / Fold change vs veh, ACBD3 / RFU, TMA16 / Fold change vs veh, TMA16 / RFU, RWDD3 / Fold change vs veh, RWDD3 / RFU, BCAT1 / Fold change vs veh, BCAT1 / RFU, EDEM3 / Fold change vs veh, EDEM3 / RFU, TMEM33 / Fold change vs veh, TMEM33 / RFU, WDR75 / Fold change vs veh, WDR75 / RFU, AHCTF1 / Fold change vs veh, AHCTF1 / RFU, TFRC / Fold change vs veh, TFRC / RFU, ZDHHC17 / Fold change vs veh, ZDHHC17 / RFU, NOM1 / Fold change vs veh, NOM1 / RFU, ARL8B / Fold change vs veh, ARL8B / RFU, ZBTB11 / Fold change vs veh, ZBTB11 / RFU, TAMM41 / Fold change vs veh, TAMM41 / RFU, KIAA1704 /// LOC100996395 / Fold change vs veh, KIAA1704 /// LOC100996395 / RFU, ING1 / Fold change vs veh, ING1 / RFU, TRMT61B / Fold change vs veh, TRMT61B / RFU, FUBP3 / Fold change vs veh, FUBP3 / RFU, TP53 / Fold change vs veh, TP53 / RFU, TNKS2 / Fold change vs veh, TNKS2 / RFU, ZFP14 / Fold change vs veh, ZFP14 / RFU, ACTR2 / Fold change vs veh, ACTR2 / RFU, PPP3R1 / Fold change vs veh, PPP3R1 / RFU, PIK3R1 / Fold change vs veh, PIK3R1 / RFU, HNRNPA1 / Fold change vs veh, HNRNPA1 / RFU, RNF170 / Fold change vs veh, RNF170 / RFU, ZNF28 / Fold change vs veh, ZNF28 / RFU, RNGTT / Fold change vs veh, RNGTT / RFU, OGT / Fold change vs veh, OGT / RFU, BRD1 / Fold change vs veh, BRD1 / RFU, MARS / Fold change vs veh, MARS / RFU, ZNF655 / Fold change vs veh, ZNF655 / RFU, FAHD1 / Fold change vs veh, FAHD1 / RFU, BDP1 / Fold change vs veh, BDP1 / RFU, LRRCC1 / Fold change vs veh, LRRCC1 / RFU, ARID1A / Fold change vs veh, ARID1A / RFU, ZNF146 / Fold change vs veh, ZNF146 / RFU, ZNF330 / Fold change vs veh, ZNF330 / RFU, GPN3 / Fold change vs veh, GPN3 / RFU, C9orf123 / Fold change vs veh, C9orf123 / RFU, N4BP2L2 / Fold change vs veh, N4BP2L2 / RFU, ARFIP1 / Fold change vs veh, ARFIP1 / RFU, FAM179B / Fold change vs veh, FAM179B / RFU, BCL10 / Fold change vs veh, BCL10 / RFU, UHRF1BP1L / Fold change vs veh, UHRF1BP1L / RFU, BET1 / Fold change vs veh, BET1 / RFU, CNOT2 / Fold change vs veh, CNOT2 / RFU, ZNF268 / Fold change vs veh, ZNF268 / Fold change vs veh, ZNF507 / RFU, DGCR2 / Fold change vs veh, DGCR2 / RFU, WDSUB1 / Fold change vs veh, WDSUB1 / Fold change vs veh, HSP90B1 /// MIR3652 / RFU, ADSS / Fold change vs veh, ADSS / RFU, GK / Fold change vs veh, GK / RFU, ZNF148 / Fold change vs veh, ZNF148 / RFU, TAF9 / Fold change vs veh, TAF9 / RFU, SLC1A5 / Fold change vs veh, SLC1A5 / RFU, SLMO2 / Fold change vs veh, SLMO2 / RFU, ABCC4 / Fold change vs veh, ABCC4 / RFU, LOC101060439 /// RAP1B / Fold change vs veh, LOC101060439 /// RAP1B / RFU, RFX7 / Fold change vs veh, RFX7 / RFU, GTPBP10 / Fold change vs veh, GTPBP10 / RFU, CNEP1R1 / Fold change vs veh, CNEP1R1 / RFU, BIVM-ERCC5 /// ERCC5 / Fold change vs veh, BIVM-ERCC5 /// ERCC5 / RFU, ILF3 / Fold change vs veh, ILF3 / RFU 11762660_at / Fold change /veh 11762660_at / RFU VCAN (11757783_s_at) / Fold change /veh VCAN (11757783_s_at) / RFU DDX43 (11728927_at) / Fold change /veh DDX43 (11728927_at) / RFU KRT8 (11758188_x_at) / Fold change /veh KRT8 (11758188_x_at) / RFU NKD1 (11759106_at) / Fold change /veh NKD1 (11759106_at) / RFU SRD5A1 (11742802_a_at) / Fold change /veh SRD5A1 (11742802_a_at) / RFU TPSAB1 /// TPSB2 (11721975_s_at) / Fold change /veh TPSAB1 /// TPSB2 (11721975_s_at) / RFU GSTM3 (11746129_a_at) / Fold change /veh GSTM3 (11746129_a_at) / RFU IL23R (11737362_x_at) / Fold change /veh IL23R (11737362_x_at) / RFU TMEM51 (11727254_a_at) / Fold change /veh TMEM51 (11727254_a_at) / RFU PIWIL2 (11732686_x_at) / Fold change /veh PIWIL2 (11732686_x_at) / RFU ORM1 (11744905_x_at) / Fold change /veh ORM1 (11744905_x_at) / RFU CCDC152 (11743942_at) / Fold change /veh CCDC152 (11743942_at) / RFU ECM1 (11717891_a_at) / Fold change /veh ECM1 (11717891_a_at) / RFU IL23R (11748794_a_at) / Fold change /veh IL23R (11748794_a_at) / RFU TNFAIP8L3 (11732012_x_at) / Fold change /veh TNFAIP8L3 (11732012_x_at) / RFU MBOAT4 (11741988_at) / Fold change /veh MBOAT4 (11741988_at) / RFU 11764193_at / Fold change /veh 11764193_at / RFU TMEM53 (11763286_at) / Fold change /veh TMEM53 (11763286_at) / RFU MAGEB2 (11727129_at) / Fold change /veh MAGEB2 (11727129_at) / RFU TMEM200A (11744735_a_at) / Fold change /veh TMEM200A (11744735_a_at) / RFU CCDC152 (11751479_a_at) / Fold change /veh CCDC152 (11751479_a_at) / RFU FAM211A (11726209_a_at) / Fold change /veh FAM211A (11726209_a_at) / RFU RGS16 (11746705_a_at) / Fold change /veh RGS16 (11746705_a_at) / RFU VCAN (11755009_s_at) / Fold change /veh VCAN (11755009_s_at) / RFU RHOB (11743442_s_at) / Fold change /veh RHOB (11743442_s_at) / RFU RGS16 (11720943_a_at) / Fold change /veh RGS16 (11720943_a_at) / RFU RGS16 (11720944_at) / Fold change /veh RGS16 (11720944_at) / RFU, VPS4B / Fold change vs veh, VPS4B / RFU, CREB1 / Fold change vs veh, CREB1 / RFU, DNAJC13 / Fold change vs veh, DNAJC13 / RFU, GNAQ / Fold change vs veh, GNAQ / RFU, CDK5R1 / Fold change vs veh, CDK5R1 / RFU, ZRANB3 / Fold change vs veh, ZRANB3 / RFU, CUL4A / Fold change vs veh, CUL4A / RFU, CCNY / Fold change vs veh, CCNY / RFU, UFL1 / Fold change vs veh, UFL1 / RFU, COG3 / Fold change vs veh, COG3 / RFU, DIAPH2 / Fold change vs veh, DIAPH2 / RFU, SKA2 / Fold change vs veh, SKA2 / RFU, AFF3 / Fold change vs veh, AFF3 / RFU, LMF1 / Fold change vs veh, LMF1 / RFU, IPO11 / Fold change vs veh, IPO11 / RFU, DFFB / Fold change vs veh, DFFB / RFU, FOXP1 / Fold change vs veh, FOXP1 / RFU, CARD8 / Fold change vs veh, CARD8 / RFU, STRN3 / Fold change vs veh, STRN3 / RFU, ADK / Fold change vs veh, ADK / RFU, RASSF2 / Fold change vs veh, RASSF2 / RFU, WIPF1 / Fold change vs veh, WIPF1 / RFU, LARP1B / Fold change vs veh, LARP1B / RFU, RASA1 / Fold change vs veh, RASA1 / RFU, RB1 / Fold change vs veh, RB1 / RFU, PPFIA1 / Fold change vs veh, PPFIA1 / RFU, MAT2A / Fold change vs veh, MAT2A / RFU, CCT5 / Fold change vs veh, CCT5 / RFU, WDR92 / Fold change vs veh, WDR92 / RFU, CUX1 / Fold change vs veh, CUX1 / RFU, TTC7A / Fold change vs veh, TTC7A / RFU, TMEM135 / Fold change vs veh, TMEM135 / RFU, DEPTOR / Fold change vs veh, DEPTOR / RFU, CPM / Fold change vs veh, CPM / RFU, DNAJB6 / Fold change vs veh, DNAJB6 / RFU, CACNA2D3 / Fold change vs veh, CACNA2D3 / RFU, DTX4 / Fold change vs veh, DTX4 / RFU, TFCP2 / Fold change vs veh, TFCP2 / RFU, GMCL1 /// GMCL1P1 / Fold change vs veh, GMCL1 /// GMCL1P1 / RFU, AEBP2 / Fold change vs veh, AEBP2 / RFU, SNHG1 /// SNORD22 /// SNORD25 /// SNORD26 /// SNORD27 /// SNORD28 /// SNORD29 /// SNORD31 / Fold change vs veh, SNHG1 /// SNORD22 /// SNORD25 /// SNORD26 /// SNORD27 /// SNORD28 /// SNORD29 /// SNORD31 / Fold change (Aza/veh), C12orf56 (ProbeSet 11735607_a_at) / Fold change (ACY-1035/veh), C12orf56 (ProbeSet 11735607_a_at) / Fold change (Aza/veh), FGFR1OP (ProbeSet 11751329_s_at) / Fold change (ACY-1035/veh), FGFR1OP (ProbeSet 11751329_s_at) / Fold change (Aza/veh), VPS36 (ProbeSet 11739960_a_at) / Fold change (ACY-1035/veh), VPS36 (ProbeSet 11739960_a_at) / RFU SYPL1 (11715823_x_at) / Fold change /veh SYPL1 (11715823_x_at) / RFU IGFBP7 (11715501_s_at) / Fold change /veh IGFBP7 (11715501_s_at) / RFU REEP3 (11722064_at) / Fold change /veh REEP3 (11722064_at) / RFU IGLL1 (11728026_x_at) / Fold change /veh IGLL1 (11728026_x_at): dose or concentration left out as unconfirmed
Details: ProbeSet 11762504_a_at; LIST D

In the case of `Nc1ccc(-c2cccs2)cc1NC(=O)c1ccc2c(c1)cc(C1CC1)n2CCN1CCOCC1` [ACY-1035], the “Fold change vs veh, ZRANB3” value was 0.86.
